Values joined by “and” are separate entries in the source; they are usually repeats but may differ in a detail not shown here. Equal entries are not always repeated.
What was measured:
[1] = Leukocyte and erythrocyte counts in peripheral blood of mice with Krebs-2 carcinoma; assay type: in vivo
Method: We also counted leukocytes and erythrocytes in mice with Krebs-2 carcinoma. […] An increase in white blood cell count in the peripheral blood is associated with the inflammatory process that develops during tumor formation and growth. […] It should be noted that topotecan at the dose of 1 mg/kg was not hemotoxic and partly normalized the concentrations of leukocytes and erythrocytes, apparently due to its antitumor effect. Treatment of mice with only compound 7, regardless of the route of administration, reduced the number of leukocytes somewhat more effectively than the drugs listed above, but the decrease was significant only in comparison with the control without treatment.
White and red blood cell counts were determined using a Goryaev chamber using a BIOSCOP-1 microscope (LOMO-MA, St. Petersburg, Russia).

[2] = test system: Lewis lung carcinoma (LLC); assay: Antitumor and antimetastatic effect in the Lewis lung carcinoma model; assay type: in vivo, mice; conditions: for average number of metastases in the lungs / average primary node (tumor) weight / tumor growth inhibition (TGI): C57BL mice with LLC; for average number of metastases in the lungs / average primary node (tumor) weight: day 18, mean ± SD; for average primary node (tumor) weight: single dose; for tumor growth inhibition (TGI): vs intact control; for number of metastases in the lungs / tumor weight: individual animals; for effect on the number of metastases in the lungs (in words): monotherapy, Tpc 1 mg/kg i/p, 7 50 mg/kg i/p or i/g
Text: Compound 7 is a hybrid of two compounds: leaders in their subclasses of usnic acid derivatives 1 and 4 [28, 32]. We studied the ability of compound 7 to sensitize the effect of topotecan on murine Lewis lung carcinoma (LLC) (Tpc + 7, Figure 3). The LLC cell line was maintained as a transplantable strain in mice and was provided by the cell depository of the Institute of Cytology and Genetics SB RAS (Novosibirsk, Russia). […] Subcutaneous transplantation leads to the development of a primary node at the injection site and the appearance of metastases in the lungs on days 17–21 [47]. The size of the primary tumor was determined as the difference in the weight of the healthy limb and the limb with the tumor after the mice were removed from the experiment on 18th day after LLC transplantation.
Female C57BL mice with a body weight of ~19–21 g were used in the study. Mice were housed in plastic cages with a wood chip bedding and had free access to water and food. Lewis lung carcinoma (LLC) and Krebs-2 ascites were used as experimental tumor models. The transplantable tumors were obtained from the cell bank of the Institute of Cytology and Genetics (Novosibirsk, Russia). The LLC mouse model is the most common model of lung cancer; LLC cells remain tumorigenic and capable of metastasis into the lung in C57BL mice. Tumor tissue was minced and resuspended in 0.9% NaCl prior to grafting. LLC was injected into the right thigh of mice at 800,000 cells in 0.2 mL per mouse.
Previously, we divided the animals into 6 groups of 6–7 individuals in each, the treatment was carried out once 7 days after tumor transplantation: • - Group 1—Intact control—mice of this group were inoculated with a tumor, receiving 0.2 mL of saline intraperitoneally; • - Group 2—DMSO-Tween-80—mice were injected once intragastrically with a probe 200 μL of a solution containing saline, Tween-80 (10%) and DMSO (15%), a solvent for 7; • - Group 3—Tpc (aqueous solution)—mice were injected once intraperitoneally with 200 µL of Tpc at a single dose of 1 mg/kg; • - Group 4—Tpc + 7 i/g—mice received Tpc once as described for group 3 and 7 in the form of 200 µL of suspension (Tween-80 (10%) and DMSO (15%) in saline) once intragastrically at a dose of 50 mg/kg; • - Group 5—7 i/g—mice were injected with 7 as described for group 4; • - Group 6—Tpc + 7 i/p—mice were injected with topotecan once as described for groups 3 and 7 in the form of 200 µL of suspension (Tween-80 (10%) and DMSO (15%) in saline) once intraperitoneally at a dose of 50 mg/kg; • - Group 7—7 i/p—mice were injected with 7 as for group 6.
The substances were administered as a single injection in a volume of 0.2 mL on day 13 after tumor grafting. The anticancer effect was evaluated by the primary tumor growth and the number of metastases in the lungs of all mice. Metastases were counted after fixation in 10% formalin under an MBI-3 microscope (LOMO, Saint Petersburg, Soviet Union) at a threefold magnification.

[3] = Toxic effect in mice with Krebs-2 carcinoma (body weight, liver and spleen indices); assay type: in vivo; conditions: for Weight of an individual with ascites / Weight of an individual without ascites: individual animals, mice with Krebs-2; for organ index, Liver (group mean) / organ index, Spleen (group mean): mice with Krebs-2 carcinoma
Text: (§1) We also studied the effect of topotecan, compound 7, and their combinations on changes in body weight of mice with LLC from days 1 to 18 after tumor transplantation and of mice with Krebs-2 carcinoma from days 1 to 8.
(§2) In addition, at the end of the experiments, we removed and weighed the liver and spleen, and calculated the liver and spleen indices.
(§3) The toxic effects of the substances were inferred from the changes in body weight during the experiment (the mice with LLC were weighed on days 1, 3, 5, 7, 10, 12, 14, 16, and 18 after grafting) and the liver and spleen weight indices at the end of the experiment.

[4] = Toxic effect in mice with LLC (body weight, liver and spleen indices)
Text: as §1, §2, §3

[5] = 7 50 mg/kg i/g, alone or with Tpc 1 mg/kg i/p
[6] = Tpc 1 mg/kg i/p and/or 7 50 mg/kg i/p
[7] = mice with LLC, 7 50 mg/kg i/g, alone or with Tpc 1 mg/kg i/p
[8] = mice with LLC, Tpc 1 mg/kg i/p and/or 7 50 mg/kg i/p

Row | SMILES | Concentration of erythrocytes in peripheral blood [1, 6] [million/µL] | Concentration of leukocytes in peripheral blood [1, 6] [thousand/µL] | average number of metastases in the lungs [2, 6] | average primary node (tumor) weight [2, 6] | tumor growth inhibition (TGI) [2, 6] [%] | number of metastases in the lungs [2, 8] | tumor weight [2, 8] | effect on the number of metastases in the lungs (in words) ([2]; mice with LLC) | Weight of an individual with ascites [3, 6] | Weight of an individual without ascites [3, 6] | organ index, Liver (group mean) ([3]; Topotecan and/or 7 i/p) [%] | organ index, Spleen (group mean) ([3]; Topotecan and/or 7 i/p) [%] | changes in body weight of mice (in words) ([4]; mouse, in vivo) | organ index, Spleen (group mean) ([4]; mouse, in vivo) [%] | also measured
1 | C/C(NCCCc1cc(C(C)(C)C)c(O)c(C(C)(C)C)c1)=C1\C(=O)C=C2Oc3c(-c4csc(N/N=C/c5ccc(Br)cc5)n4)c(O)c(C)c(O)c3[C@@]2(C)C1=O [Compound 7, (4E)-10-{2-[(E)-2-[(4-bromophenyl)methylidene]hydrazin-1-yl]-1,3-thiazole-4-yl}-4-(1-{[3-(3,5-di-tret-butyl-4-hydroxyhenyl)propyl]amino}ethylidene)-11,13-dihydroxy-2,12-dimethyl-8-oxatricyclo [7.4.0.02,7]trideca-1(13),6,9,11-tetraen-3,5-dione] | 7 ± 0.6 | 10.1 ± 0.9 | 15,5±5,5 | 3,9±0,7 g | 11.4 | 10 and 21 | 3.4 g and 4.4 g | no effect | 21.5 g and 22.2 g and 21.3 g and 22.1 g and 23.4 g and 24.9 g | 18.4 g and 19.8 g and 16.8 g and 16.6 g and 19.4 g and 18.2 g and 18.7 g | 4.1±0.3 | 1.0±0.1 | tendency towards an increase in the weight of animals | 1.3±0.2 | Concentration of erythrocytes in peripheral blood [1, 5]: 7.2 ± 0.6 million/µL; Concentration of leukocytes in peripheral blood [1, 5]: 10.7 ± 0.8 thousand/µL; average primary node (tumor) weight [2, 5]: 4,2±0,9 g; tumor growth inhibition (TGI) [2, 5]: 4.5%; number of metastases in the lungs [2, 7]: 18 and 4 and 21 and 0; tumor weight [2, 7]: 2.9 g and 4.5 g and 4.8 g and 3.7 g and 5.3 g; effect on the growth of the primary node (in words) ([2]; mice with LLC, mono mode): no effect; Weight of an individual with ascites [3, 5]: 24.5 g and 22.7 g and 21 g and 23.3 g; Weight of an individual without ascites [3, 5]: 19.9 g and 16.5 g and 16.4 g and 19.4 g and 18.8 g; organ index, Liver (group mean) ([3]; 7 i/g, alone or with Topotecan): 4.4±0.5%; organ index, Spleen (group mean) ([3]; 7 i/g, alone or with Topotecan): 1.2±0.1%; tolerability / acute toxic effect (in words) ([4]; mouse, in vivo): well tolerated and did not cause acute toxic effect
2 | CC[C@@]1(O)C(=O)OCc2c1cc1n(c2=O)Cc2cc3c(CN(C)C)c(O)ccc3nc2-1 [Tpc, topotecan] | 7.6 ± 0.4 | 11.2 ± 0.7 | 11,8±6,1 | 2,8±0,5 g | 36.4 | 24 and 9 and 5 | 2.9 g and 3 g and 3.4 g and 2.7 g | virtually no effect | 21 g and 23.5 g and 23.4 g and 21.2 g and 22.9 g and 21.4 g and 21.9 g | 18.7 g and 17.9 g and 19.9 g and 19.2 g and 20 g and 19 g and 19.5 g | 4.8±0.6 | 1.3±0.2 | tendency towards an increase in the weight of animals | 1.19±0.04 | hemotoxicity (in words) ([1]; dose of 1 mg/kg): not hemotoxic; tolerability / acute toxic effect (in words) ([4]; mice with LLC and mice with Krebs-2 carcinoma): well tolerated and did not cause acute toxic effect; organ index, Liver (group mean) ([4]; mouse, in vivo): 5.6±0.7%
